According to EP2123641A1, “CRYSTAL, AMORPHOUS FORM AND SALT OF METHYL N-Ý3-(6,7-DIMETHOXY- 2-METHYLAMINOQUINAZOLIN-4-YL)PHENYL¨[…] ACID” (priority 2007, dated 2008):
Like-named read-outs stand apart in the source and are kept apart here.

How the values were obtained:
Details in all cases: human, 2880 min
CYP3A4 = tested on: CYP3A4
Method: (§1) Cryopreserved human hepatocytes (XenoTeek) were rapidly thawed at 37°C, and viable cells were obtained using Hepatocytes Isolation Kit (Nosan Corporation). After cells prepared were diluted with ice cold William's Medium E (10% FBS, +PSG) to give a concentration of 5 x 10^5 viable cells/mL, the cells were seeded onto a 48-well collagen-coated plate (BD Biosciences) at a concentration of 1 x 10^5 cells/cm^2 and cultured at 37°C in 5% CO2 for 24 hours. Then, the medium was replaced with Hepato-STIM (registered trade mark: BD Biosciences) (+EGF, PSG, -FBS), and the cells were further cultured at 37°C in 5% CO2 for 24 hours. […] The culture medium containing test compound, β-NF or Rif was replaced every 24 hours. Test compound, β-NF and Rif were each dissolved in dimethyl sulfoxide (DMSO: Wako Pure Chemical Industries, Ltd.), and culture medium containing test compound (final concentrations; 1, 3 and 10µM), β-NF (final concentration; 10µM) or Rif (final concentration; 10µM) was prepared by adding them to Hepato-STIM(+EGF, PSG, -FBS), respectively. […] The levels of mRNA for CYP1A1 and GAPDH were quantified using SYBR Green PCR Core Reagents Kit (Applied Biosystems), and those for CYP1A2 and that of CYP3A4 were measured using Taqman PCR Core Reagents Kit (Applied Biosystems) and ABI Prism 7900 Sequence Detection System (Applied Biosystems).
(§2) The ability of a test compound to induce CYP1A1 was calculated as follows: Ability of a test compound to induce CYP1A1 (%) = {[(amount of mRNA of CYP1A1 in test compound treated cells)/(amount of mRNA of GAPDH in test compound treated cells)]/[(amount of mRNA of CYP1A1 in control cells)/(amount of mRNA of GAPDH in control cells)] - 1}/{[(amount of mRNA of CYP1A1 in positive control treated cells)/(amount of mRNA of GAPDH in positive control treated cells)]/[(amount of mRNA of CYP1A1 in control cells)/(amount of mRNA of GAPDH in control cells)] -1} x 100 The ability to induce CYP1A2 or CYP3A4 was calculated in the same manner described above.

CYP1A1 = tested on: CYP1A1
Method: Cryopreserved human hepatocytes (XenoTeek) were rapidly thawed at 37°C, and viable cells were obtained using Hepatocytes Isolation Kit (Nosan Corporation). […] Then, the medium was replaced with Hepato-STIM (registered trade mark: BD Biosciences) (+EGF, PSG, -FBS), and the cells were further cultured at 37°C in 5% CO2 for 24 hours. […] The culture medium containing test compound, β-NF or Rif was replaced every 24 hours. […] The levels of mRNA for CYP1A1 and GAPDH were quantified using SYBR Green PCR Core Reagents Kit (Applied Biosystems), and those for CYP1A2 and that of CYP3A4 were measured using Taqman PCR Core Reagents Kit (Applied Biosystems) and ABI Prism 7900 Sequence Detection System (Applied Biosystems).

CYP1A2 = tested on: CYP1A2
Method: as §1, §2

SMILES	Induction Ability compared to positive control (%) CYP3A4 (CYP3A4; 1 uM)	Induction Ability compared to positive control (%) CYP3A4 (CYP3A4; 3 uM)	Induction Ability compared to positive control (%) CYP3A4 (CYP3A4; 10 uM)	Induction Ability compared to positive control (%) CYP1A1 (CYP1A1; 1 uM)	Induction Ability compared to positive control (%) CYP1A1 (CYP1A1; 3 uM)	Induction Ability compared to positive control (%) CYP1A1 (CYP1A1; 10 uM)	Induction Ability compared to positive control (%) CYP1A2 (CYP1A2; 1 uM)	Induction Ability compared to positive control (%) CYP1A2 (CYP1A2; 3 uM)	Induction Ability compared to positive control (%) CYP1A2 (CYP1A2; 10 uM)
CNc1nc(-c2cccc(NC(=O)c3ccc(C(=O)OC)cc3)c2)c2cc(OC)c(OC)cc2n1 [Example 1, methyl N-[3-(6,7-dimethoxy-2-methylaminoquinazolin-4-yl)phenyl]terephthalamic acid]	-2.4%	-3.4%	-4.0%	0.1%	0.6%	4.6%	-0.1%	-0.7%	2.5%
O=c1cc(-c2ccccc2)oc2ccc3ccccc3c12 [β-naphthoflavone, reference compound]						100.0%			
